{"source": "ChEMBL document CHEMBL3885881", "about": "“DrugMatrix”", "species_on_record": "Rattus norvegicus", "assay": "DrugMatrix - Regimen: Daily Repeat", "type": "toxicity, organism-based, Sprague-Dawley", "design": "regimen Daily Repeat, gender Male, age 6-8 weeks", "conditions": "in vivo, po, 56 mg/kg, route oral GAVAGE, […]", "key": {"[1]": {"conditions": "72 h, tissue Plasma, dose level Low, time 3 day"}, "[2]": {"conditions": "120 h, tissue Blood, dose level High, time 5 day"}, "[3]": {"conditions": "120 h, tissue Blood, dose level Low, time 5 day"}, "[4]": {"conditions": "120 h, tissue Plasma, dose level High, time 5 day"}, "[5]": {"conditions": "120 h, tissue Plasma, dose level Low, time 5 day"}, "[6]": {"conditions": "tissue Blood, dose level High, time 28 day"}, "[7]": {"conditions": "tissue Plasma, dose level High, time 28 day"}}}
{"smiles": "NC[C@@H]1O[C@H](O[C@H]2[C@@H](O)[C@H](O[C@@H]3[C@@H](O)[C@H](N)C[C@H](N)[C@H]3O[C@H]3O[C@H](CN)[C@@H](O)[C@H](O)[C@H]3N)O[C@@H]2CO)[C@H](N)[C@@H](O)[C@@H]1O", "note": "[FRAMYCETIN]", "values": [{"measurement": "CREATININE", "setting": "[1]", "value": 0.19, "unit": "mg/dL"}, {"measurement": "GLUCOSE", "setting": "[1]", "value": 156.33, "unit": "mg/dL"}, {"measurement": "LACTATE DEHYDROGENASE", "setting": "[1]", "value": 107.33, "unit": "u/L"}, {"measurement": "LIPASE", "setting": "[1]", "value": 10.33, "unit": "u/L"}, {"measurement": "PHOSPHORUS", "setting": "[1]", "value": 10.8, "unit": "mg/dL"}, {"measurement": "POTASSIUM", "setting": "[1]", "value": 5.83, "unit": "MEQ/L"}, {"measurement": "SODIUM", "setting": "[1]", "value": 143.17, "unit": "MEQ/L"}, {"measurement": "TOTAL BILIRUBIN", "setting": "[1]", "value": 0.1, "unit": "mg/dL"}, {"measurement": "TOTAL PROTEIN", "setting": "[1]", "value": 5.97, "unit": "G/DL"}, {"measurement": "URIC ACID", "setting": "[1]", "value": 0.4, "unit": "mg/dL"}, {"measurement": "BASOPHIL", "setting": "[2]", "value": 0.36, "unit": "%"}, {"measurement": "EOSINOPHIL", "setting": "[2]", "value": 0.6, "unit": "%"}, {"measurement": "ERYTHROCYTE COUNT", "setting": "[2]", "value": 7.45, "unit": "x10E6/uL"}, {"measurement": "HEMATOCRIT", "setting": "[2]", "value": 49.44, "unit": "%"}, {"measurement": "HEMOGLOBIN", "setting": "[2]", "value": 15.6, "unit": "G/DL"}, {"measurement": "LEUKOCYTE COUNT", "setting": "[2]", "value": 6.84, "unit": "x10E3/uL"}, {"measurement": "LYMPHOCYTE", "setting": "[2]", "value": 82.08, "unit": "%"}, {"measurement": "MEAN CORPUSCULAR HEMOGLOBIN", "setting": "[2]", "value": 20.94, "unit": "pg"}, {"measurement": "MEAN CORPUSCULAR HEMOGLOBIN CONCENTRATION", "setting": "[2]", "value": 31.58, "unit": "G/DL"}, {"measurement": "MEAN CORPUSCULAR VOLUME", "setting": "[2]", "value": 66.34, "unit": "fL"}, {"measurement": "MONOCYTE", "setting": "[2]", "value": 1.68, "unit": "%"}, {"measurement": "NEUTROPHIL", "setting": "[2]", "value": 14.3, "unit": "%"}, {"measurement": "PLATELET COUNT", "setting": "[2]", "value": 1274.6, "unit": "x10E3/uL"}, {"measurement": "ABSOLUTE BASOPHIL", "setting": "[3]", "value": 0, "unit": "CELLS/uL"}, {"measurement": "ABSOLUTE EOSINOPHIL", "setting": "[3]", "value": 0, "unit": "CELLS/uL"}, {"measurement": "ABSOLUTE LYMPHOCYTE", "setting": "[3]", "value": 7805, "unit": "CELLS/uL"}, {"measurement": "ABSOLUTE MONOCYTE", "setting": "[3]", "value": 76.67, "unit": "CELLS/uL"}, {"measurement": "ABSOLUTE SEGMENTED NEUTROPHIL", "setting": "[3]", "value": 785, "unit": "CELLS/uL"}, {"measurement": "BASOPHIL", "setting": "[3]", "value": 0, "unit": "%"}, {"measurement": "EOSINOPHIL", "setting": "[3]", "value": 0, "unit": "%"}, {"measurement": "ERYTHROCYTE COUNT", "setting": "[3]", "value": 5.67, "unit": "x10E6/uL"}, {"measurement": "HEMATOCRIT", "setting": "[3]", "value": 34.13, "unit": "%"}, {"measurement": "HEMOGLOBIN", "setting": "[3]", "value": 13.3, "unit": "G/DL"}, {"measurement": "LEUKOCYTE COUNT", "setting": "[3]", "value": 8.67, "unit": "x10E3/uL"}, {"measurement": "LYMPHOCYTE", "setting": "[3]", "value": 89.33, "unit": "%"}, {"measurement": "MEAN CORPUSCULAR HEMOGLOBIN", "setting": "[3]", "value": 23.47, "unit": "pg"}, {"measurement": "MEAN CORPUSCULAR HEMOGLOBIN CONCENTRATION", "setting": "[3]", "value": 38.97, "unit": "G/DL"}, {"measurement": "MEAN CORPUSCULAR VOLUME", "setting": "[3]", "value": 60.2, "unit": "fL"}, {"measurement": "MONOCYTE", "setting": "[3]", "value": 1, "unit": "%"}, {"measurement": "NEUTROPHIL", "setting": "[3]", "value": 9.67, "unit": "%"}, {"measurement": "NUCLEATED RED BLOOD CELLS", "setting": "[3]", "value": "0 /100WBC"}, {"measurement": "PLATELET COUNT", "setting": "[3]", "value": 1077, "unit": "x10E3/uL"}, {"measurement": "ALANINE AMINOTRANSFERASE", "setting": "[4]", "value": 29, "unit": "u/L"}, {"measurement": "ALBUMIN", "setting": "[4]", "value": 3.74, "unit": "G/DL"}, {"measurement": "ALKALINE PHOSPHATASE", "setting": "[4]", "value": 336, "unit": "u/L"}, {"measurement": "ASPARTATE AMINOTRANSFERASE", "setting": "[4]", "value": 73.8, "unit": "u/L"}, {"measurement": "BLOOD UREA NITROGEN", "setting": "[4]", "value": 6.6, "unit": "mg/dL"}, {"measurement": "CHLORIDE", "setting": "[4]", "value": 109.6, "unit": "MEQ/L"}, {"measurement": "CHOLESTEROL", "setting": "[4]", "value": 60.6, "unit": "mg/dL"}, {"measurement": "CREATINE PHOSPHOKINASE", "setting": "[4]", "value": 307, "unit": "u/L"}, {"measurement": "CREATININE", "setting": "[4]", "value": 0.28, "unit": "mg/dL"}, {"measurement": "GLUCOSE", "setting": "[4]", "value": 128.6, "unit": "mg/dL"}, {"measurement": "PHOSPHORUS", "setting": "[4]", "value": 13.88, "unit": "mg/dL"}, {"measurement": "POTASSIUM", "setting": "[4]", "value": 6.96, "unit": "MEQ/L"}, {"measurement": "SODIUM", "setting": "[4]", "value": 151.8, "unit": "MEQ/L"}, {"measurement": "TOTAL BILIRUBIN", "setting": "[4]", "value": 0.16, "unit": "mg/dL"}, {"measurement": "TOTAL PROTEIN", "setting": "[4]", "value": 6.22, "unit": "G/DL"}, {"measurement": "ALANINE AMINOTRANSFERASE", "setting": "[5]", "value": 68.67, "unit": "u/L"}, {"measurement": "ALBUMIN", "setting": "[5]", "value": 4.03, "unit": "G/DL"}, {"measurement": "ALKALINE PHOSPHATASE", "setting": "[5]", "value": 434, "unit": "u/L"}, {"measurement": "ASPARTATE AMINOTRANSFERASE", "setting": "[5]", "value": 94.67, "unit": "u/L"}, {"measurement": "BLOOD UREA NITROGEN", "setting": "[5]", "value": 12, "unit": "mg/dL"}, {"measurement": "CARBON DIOXIDE", "setting": "[5]", "value": 26.33, "unit": "mmol/L"}, {"measurement": "CHLORIDE", "setting": "[5]", "value": 104, "unit": "MEQ/L"}, {"measurement": "CHOLESTEROL", "setting": "[5]", "value": 74.67, "unit": "mg/dL"}, {"measurement": "CREATINE PHOSPHOKINASE", "setting": "[5]", "value": 481.67, "unit": "u/L"}, {"measurement": "CREATININE", "setting": "[5]", "value": 0.23, "unit": "mg/dL"}, {"measurement": "GLUCOSE", "setting": "[5]", "value": 156.33, "unit": "mg/dL"}, {"measurement": "LACTATE DEHYDROGENASE", "setting": "[5]", "value": 224, "unit": "u/L"}, {"measurement": "LIPASE", "setting": "[5]", "value": 10.33, "unit": "u/L"}, {"measurement": "PHOSPHORUS", "setting": "[5]", "value": 10.57, "unit": "mg/dL"}, {"measurement": "POTASSIUM", "setting": "[5]", "value": 6.71, "unit": "MEQ/L"}, {"measurement": "SODIUM", "setting": "[5]", "value": 148.83, "unit": "MEQ/L"}, {"measurement": "TOTAL BILIRUBIN", "setting": "[5]", "value": 0.17, "unit": "mg/dL"}, {"measurement": "TOTAL PROTEIN", "setting": "[5]", "value": 6.03, "unit": "G/DL"}, {"measurement": "URIC ACID", "setting": "[5]", "value": 1.13, "unit": "mg/dL"}, {"measurement": "BASOPHIL", "setting": "[6]", "value": 0.48, "unit": "%"}, {"measurement": "EOSINOPHIL", "setting": "[6]", "value": 0.51, "unit": "%"}, {"measurement": "ERYTHROCYTE COUNT", "setting": "[6]", "value": 8.01, "unit": "x10E6/uL"}, {"measurement": "HEMATOCRIT", "setting": "[6]", "value": 48.92, "unit": "%"}, {"measurement": "HEMOGLOBIN", "setting": "[6]", "value": 15.88, "unit": "G/DL"}, {"measurement": "LEUKOCYTE COUNT", "setting": "[6]", "value": 12.82, "unit": "x10E3/uL"}, {"measurement": "LYMPHOCYTE", "setting": "[6]", "value": 83.46, "unit": "%"}, {"measurement": "MEAN CORPUSCULAR HEMOGLOBIN", "setting": "[6]", "value": 19.85, "unit": "pg"}, {"measurement": "MEAN CORPUSCULAR HEMOGLOBIN CONCENTRATION", "setting": "[6]", "value": 32.47, "unit": "G/DL"}, {"measurement": "MEAN CORPUSCULAR VOLUME", "setting": "[6]", "value": 61.12, "unit": "fL"}, {"measurement": "MONOCYTE", "setting": "[6]", "value": 1.54, "unit": "%"}, {"measurement": "NEUTROPHIL", "setting": "[6]", "value": 12.95, "unit": "%"}, {"measurement": "PLATELET COUNT", "setting": "[6]", "value": 1208.1, "unit": "x10E3/uL"}, {"measurement": "ALANINE AMINOTRANSFERASE", "setting": "[7]", "value": 26.9, "unit": "u/L"}, {"measurement": "ALBUMIN", "setting": "[7]", "value": 3.85, "unit": "G/DL"}, {"measurement": "ALKALINE PHOSPHATASE", "setting": "[7]", "value": 200.9, "unit": "u/L"}, {"measurement": "ASPARTATE AMINOTRANSFERASE", "setting": "[7]", "value": 62.4, "unit": "u/L"}, {"measurement": "BLOOD UREA NITROGEN", "setting": "[7]", "value": 11, "unit": "mg/dL"}, {"measurement": "CHLORIDE", "setting": "[7]", "value": 107.1, "unit": "MEQ/L"}, {"measurement": "CHOLESTEROL", "setting": "[7]", "value": 54.5, "unit": "mg/dL"}, {"measurement": "CREATINE PHOSPHOKINASE", "setting": "[7]", "value": 177.2, "unit": "u/L"}, {"measurement": "CREATININE", "setting": "[7]", "value": 0.38, "unit": "mg/dL"}, {"measurement": "GLUCOSE", "setting": "[7]", "value": 135.2, "unit": "mg/dL"}, {"measurement": "PHOSPHORUS", "setting": "[7]", "value": 11.16, "unit": "mg/dL"}, {"measurement": "POTASSIUM", "setting": "[7]", "value": 6.5, "unit": "MEQ/L"}, {"measurement": "SODIUM", "setting": "[7]", "value": 151.5, "unit": "MEQ/L"}, {"measurement": "TOTAL BILIRUBIN", "setting": "[7]", "value": 0.22, "unit": "mg/dL"}, {"measurement": "TOTAL PROTEIN", "setting": "[7]", "value": 6.52, "unit": "G/DL"}]}
